How the values were obtained:
[1] = tested on: SPR-KO mice; conditions: mouse, in vivo
[2] = tested on: SPR-KO mice; assay: Tremor test in SPR-KO mice; conditions: mouse, in vivo
[3] = tested on: VL neurons; assay: In vivo spike recording of spontaneous rebound firing in SPR-KO mice; conditions: mouse

Structure (SMILES) | motor problems (akinesia, gait disturbance, tremor) [1] | abnormal motor functions (tremor score) [2] | spontaneous rebound firing of VL neurons [3]
N[C@@H](Cc1ccc(O)c(O)c1)C(=O)O [L-DOPA] | ameliorated |  | 
CCC1(C)CC(=O)NC1=O (stereo not drawn) [ethosuximide] |  | ameliorated | reduced spontaneous rebound firing
